# Test results: patent US20190233409A1, “SUBSTITUTED 2,3,4,5-TETRAHYDRO-1H-PYRIDO[4,3-B]INDOLES, METHODS FOR USE THEREOF” (priority 2017, published 2019)
# Experiments:
# [1] = tested on: BALB/c male mice; assay: Mice Behavior an Elevated Cross Shaped Labyrinth; type: in vivo; details: preference index for open sections, number of defecations
# Description: The length of each section in the labyrinth is 30 cm, the width is 5 cm, the height of the walls is 15 cm. Two opposite sections are closed by transparent walls on the sides and on the butt ends, the other two sections are lit and opened. A mouse was placed in the center of the labyrinth and for the next five minutes the number of entries the open and closed sections and the time spent in each type of section was registered. […] The animals usually avoid the open sections (the preference index is between 0.2 and 0.3).
# [2] = tested on: BALB/c male mice; assay: Training Mice in the Morris Water labyrinth, scopolamine; type: in vivo; details: scopolamine 0.6 mg/kg; 1.2.1(5)HCl 0.1 mg/kg, 1.2.1(1)HCl 1 mg/kg, tacrine 3 mg/kg
# Method: A circular pool of 100 cm diameter and of 30 cm sides was used. It was filled with water at 20-22° C. A circular ceramic platform of 14 cm height was placed in the pool. The behavior of the animals was registered using an automated computer video system in addition with software package of movement analyzer Any-maze (Stoelting Colo., US). The experiments were carried out on aged male mice of BALB/c line weighing 20-24 grams. Before the experiments mice fit for learning were selected. This was done by placing the platform 1 cm above the water level and putting an animal on the platform for 20 seconds. Then the mouse was put in the water on the opposite side of the pool and allowed to find the platform and climb onto it for 60 seconds, where it was left for additional 20 seconds. After that the mouse was repeatedly immersed in the water on the opposite side of the pool and allowed to search for the platform. If it failed in finding the platform within 60 seconds the experimentator helped it to find the platform and climb onto it. If the mice couldn't find the platform itself in two consecutive attempts it was excluded from the experiment. During the next two days the platform was placed 0.5 centimeters lower the water level. Every day the mice were given four attempts for finding the platform within 60 seconds. The time interval between the attempts was 20 seconds, during which the mice stayed on the platform. Every day before the first attempt the mice was placed on the platform for 20 seconds. The time needed for finding and climbing the platform was registered. The animals were sunk in water in two different places on the side of the pool opposite to the platform. […] The animals of the control group were injected with physiological solution. At least 8 animals were used in each group. On the third day the platform was removed and each animal was placed in the pool once for a period of 60 seconds. The time each mouse spent in the area where the platform had been located during the previous days was registered. […]
# [3] = tested on: calcium canals regulated by the intracellular calcium depot; assay: Histamine-induced calcium stream in SK-N-SH cells, Phase 2 (lowering of intracellular calcium concentration); type: cell-based; details: Homo sapiens, 10 μM histamine, Fura 2 AM, Phase 2: discharge of intraplasmatic calcium
# [4] = tested on: BALB/c male mice; assay: Passive Avoidance of Mice in a Shuttle Chamber, scopolamine or MK-801 (Example 8); type: in vivo; details: scopolamine 0.3 mg/kg or MK-801 0.1 mg/kg
# Method: Example 7. […] A shuttle chamber (Ugo Basile, Italy) consisted of two sections was used. […] The sections were connected via a hole which could be shut with a vertical door. The floor was made of transverse metal bars on which DC current impulses could be fed. Experiments were carried out on aged male mice of line BALB/c weighing 20-24 grams.
# On the first day of the experiment 30 minutes before training the mice were injected intraintestinally with physiological solution of scopolamine (0.3 mg/kg) or scopolamine in combination with antagonists of 5-HT6 receptors 1.2.1(2)HCl, 1.2.1(4)HCl or 1.2.1(5)HCl. Each group consisted of at least 8 animals. The animals were placed in the light section, and the latent period of the first entry into the dark chamber was registered. Then the vertical door was closed and the animal was punished by 0.6 mA DC current for 3 seconds. After that the animal was carried back to its living cell. In 22-24 hours the same animal was placed in the light section of the shuttle chamber once again and the latent period before its entry into the dark section, the total time of its stay in the light section and the number of entries into the dark section were registered. Each observation lasted for 5 minutes.
# The experiment was carried out in the same way as in example 7. On the first day 30 minutes before training the mice were injected intra-intestinally with a physiological solution of scopolamine (0.3 mg/kg) or MK-801(0.1 mg/kg).
# [5] = tested on: SHK male mice; assay: Recognition of New Objects by Mice Under Scopolamine and MK-801; type: in vivo; details: scopolamine 1 mg/kg and MK-801 0.2 mg/kg
# Method: The experiments were carried out in a closed cross shaped labyrinth which consisted of 4 peripheral sections connected with the central chamber via a 7×7 cm hole. The labyrinth was made of black plastic and its sections were of 14×14×14 cm size. The top cover of the labyrinth was transparent.
# A mouse was placed in the central section of the labyrinth and allowed to investigate the environment. A mouse was considered to have entered a section once all of its four paws were inside the chamber. A test was considered to be completed when the mouse had moved 12 times between the sections, having made a total of 13 visits. The floor of the labyrinth was cleaned after each animal.
# With each mouse the test was carried out twice with 1 hour interval.
# During the first test, each section of the labyrinth contained a circular plastic cup of 3 cm height and 7 cm diameter. During the second test the cover in each of the two opposing sections was replaced by a conical glass bulb of 7 cm height and 4 cm across the bottom. The time that the mice spent in each section of the labyrinth was registered and the index of new object recognition was calculated as the ratio of the time spent in the sections with the bulbs to the time spent in all sections of the labyrinth. If no preference is given to the sections with new objects the index is 0.5.
# When new objects appear the mice spend more time in the section containing them that results in an increased recognition index. Scopolamine (1 mg/kg) and MK-801 (0.2 mg/kg) disturbed learning (memory) that leads to lowering of the recognition index.
# [6] = tested on: BALB/c male mice; assay: Passive Avoidance of Mice in a Shuttle Chamber, memory disturbed by scopolamine (Example 7); type: in vivo; details: scopolamine 0.3 mg/kg, injected 30 minutes before training
# Method: Example 7. […] A shuttle chamber (Ugo Basile, Italy) consisted of two sections was used. […] The sections were connected via a hole which could be shut with a vertical door. The floor was made of transverse metal bars on which DC current impulses could be fed. Experiments were carried out on aged male mice of line BALB/c weighing 20-24 grams. […] Each group consisted of at least 8 animals. The animals were placed in the light section, and the latent period of the first entry into the dark chamber was registered. Then the vertical door was closed and the animal was punished by 0.6 mA DC current for 3 seconds. After that the animal was carried back to its living cell. In 22-24 hours the same animal was placed in the light section of the shuttle chamber once again and the latent period before its entry into the dark section, the total time of its stay in the light section and the number of entries into the dark section were registered. Each observation lasted for 5 minutes. The experiment was carried out during the day time in an isolated laboratory using white noise at a level of about 70 decibel above the human hearing threshold. Scopolamine causes the disturbance of training (memory loss) which results in […]. The fact that 5-HT6 receptor antagonists can improve the learning ability that has been disturbed by scopolamine is regarded as evidence for their nootropic effect.
EC50 [3] [µM],Compound,"tranquilizing action (elevated cross shaped labyrinth, figure 19-21) [1]","improvement of mice's training (Morris water labyrinth, FIGS. 11-12) [2]","nootropic action (passive avoidance, FIGS. 5-10) [4]","nootropic action (new object recognition, FIG. 13-14) [5]","nootropic action (passive avoidance, FIGS. 2-4) [6]"
,O=C1CC2(CCCC2)CC(=O)N1CCCCN1CCN(c2ncccn2)CC1 [Buspiron],exhibit a tranquilizing action,,,,
1.58,"Cc1ccc2c(c1)c1c(n2CCc2ccc(C)nc2)CCN(C)C1.Cl [1.2.1(5)HCl, 2,8-dimethyl-5-[2-(6-methylpyridin-3-yl)ethyl]-2,3,4,5-tetrahydro-1H-pyrido[4,3-b]indole hydrochloride]",exhibit a tranquilizing action,statistically significant improvement of mice's training,exhibit a nootropic action,nootropic action,exhibit a nootropic action
,O=S(=O)(c1ccccc1)c1cnc2c(N3CCNCC3)cccc2c1 [SB-742457],,,inactive,nootropic action,
,Nc1c2c(nc3ccccc13)CCCC2 [tacrine],,statistically significant improvement of mice's training,,,
0.15,"Cc1ccc2c(c1)c1c(n2CCc2ccccc2)CCN(C)C1.Cl [1.2.1(1)HCl, 2,8-dimethyl-5-(2-phenylethyl)-2,3,4,5-tetrahydro-1H-pyrido[4,3-b]indole hydrochloride]","exhibit a tranquilizing action, which is the most prominent",statistically significant improvement of mice's training,highest activity,"nootropic action, the level of which is the most prominent",
